Legend:
Type in all cases: biochemical
[1] = biological target: JMJD3 (Homo sapiens, UniProt O15054); assay: AlphaScreen JMJD3 demethylase inhibition; settings: for inhibition at 25 µM: compound at 25 μM
Description: (§1) Compounds 4 and 5 also appreciably decrease enzyme activity by 65 % and 60 %, respectively. […] We proceeded to investigate the inhibitory activity of 3 further by evaluation of its IC50 value against JMJD3. The results highlighted a low micromolar activity of compound 3 against JMJD3 (Table 1). […] Similar outcomes were obtained for 3 versus JMJD2C and JMJD2D (Table 1). […] Relative to JMJD1A and FBXL11, we found a decrease in enzymatic activity (Table 1) toward Jarid1A and Jarid1B of 33 % and 26 % by 3.
(§2) 2,4-pyridine dicarboxylic acid (2,4-PC) is purchased from Acros Organics (New Jersey, […]
GSK J1 is purchased from Sigma Aldrich (Italy, Catalog number SML0709).
JIB-04 is purchased from Sigma-Aldrich (St. Louis, MO, Catalog number SML0808).
AlphaLISA anti-mIgG acceptor beads from PerkinElmer (Santa Clara, CA, Catalog number […]
AlphaLISA anti-rIgG acceptor beads from PerkinElmer (Santa Clara, CA, Catalog number […]
AlphaScreen Streptavidin-conjaugated donor beads from PerkinElmer (Santa Clara, CA, […]
Primary antibody 2 from BPS (Catalog number 52140B1).
Primary antibody 5 from BPS (Catalog number 52140E).
Primary antibody 6 from BPS (Catalog number 52140F).
Primary antibody 16-2 from BPS (Catalog number 52140P2).
Primary antibody 17-3 from BPS(Catalog number 52140Q3). […]
Biotinylated histone H3 peptide substrate (UTX and JMJD3) (BPS and Anaspec). […]
JMJD3 Assay Buffer from BPS. […]
4x Detection buffer from BPS (Catalog number 52301).
All of the enzymatic reactions were conducted at room temperature for 60 minutes in a 10 µl mixture containing assay buffer, histone H3 peptide substrate, demethylase enzyme, and the test compound. These 10 µl reactions were carried out in wells of 384-well Optiplate (PerkinElmer). The serial dilution of the compounds was first performed in 100% DMSO with the highest concentration at 1 mM. Each intermediate compound dilution (in 100% DMSO) will then get directly diluted 30x fold into assay buffer for 3.3x conc (DMSO). Enzyme only and blank only wells have a final DMSO concentration of 1%. From this intermediate step, 3 µl of compound is added to 4 µl of demethylase enzyme dilution is incubated for 30 minutes at room temperature. After this incubation, 3 µl of peptide substrate is added. The final DMSO concentration is 1%.
(§3) After enzymatic reactions, 5 µl of anti-Mouse Acceptor beads (PerkinElmer, diluted 1:500 with 1x detection buffer) or 5 µl of anti-Rabbit Acceptor beads (PerkinElmer, diluted 1:500 with 1x detection buffer) and 5 µl of Primary antibody (BPS, diluted 1:200 with 1x detection buffer) were added to the reaction mix. After brief shaking, plate was incubated for 30 minutes. Finally, 10 µl of AlphaScreen Streptavidin-conjugated donor beads (Perkin, diluted 1:125 with 1x detection buffer) were added. In 30 minutes, the samples were measured in AlphaScreen microplate reader (EnSpire Alpha 2390 Multilabel Reader, PerkinElmer).
For JMJD3, Donor and acceptor beads and primary antibody were incubated for 1 h,[9] for the remaining enzymes for 30’.
5 µL of AlphaScreen assay buffer containing EDTA (30 mM) and NaCl (800 mM) to stop the […]
Except for JMJD3, the experiments were performed by BPS Bioscience.
Enzyme activity assays were performed in duplicates at each concentration. The A-screen intensity data were analyzed and compared. In the absence of the compound, the intensity in each data set was defined as 100% activity. In the absence of enzyme, the intensity in each data set was defined as 0% activity. The values of % activity versus a series of compound concentrations were then plotted using non-linear regression analysis of Sigmoidal dose-response curve generated with the equation Y=B+(T-B)/1+10((LogEC50-X)×Hill Slope), where Y=percent activity, B=minimum percent activity, T=maximum percent activity, X= l ogarithm of compound and Hill Slope=slope factor or Hill coefficient. The IC 50 value was determined by the concentration causing a half -maximal percent activity.

[2] = biological target: T1, UTX (Homo sapiens, UniProt O15550); assay: AlphaScreen UTX demethylase inhibition (selectivity); settings: at 10 μM; NI = no significant inhibition at 10 μM
T1 construct: purchased BPS Bioscience (contract assay)
Description: as §1, §2
(§4) GSK J1 is purchased from Sigma Aldrich (Italy, Catalog number SML0709). […]
as §3, with “After brief shaking, plate was incubated for 30 minutes. Finally, 10 µl of AlphaScreen Streptavidin-conjugated donor beads (Perkin, diluted 1:125 with 1x detection buffer) were added.” left out, “PerkinElmer). […]” for “PerkinElmer).”
(§5) Enzyme activity assays were performed in duplicates at each concentration. The A-screen intensity data were analyzed and compared. […] The IC 50 value was determined by the concentration causing a half -maximal percent activity.

[3] = biological target: T2, JMJD1A (Homo sapiens, UniProt Q9Y4C1); assay: AlphaScreen JMJD1A demethylase inhibition (selectivity)
T2 construct: purchased BPS Bioscience (contract assay)
T2 sequence (Q9Y4C1 1-1321): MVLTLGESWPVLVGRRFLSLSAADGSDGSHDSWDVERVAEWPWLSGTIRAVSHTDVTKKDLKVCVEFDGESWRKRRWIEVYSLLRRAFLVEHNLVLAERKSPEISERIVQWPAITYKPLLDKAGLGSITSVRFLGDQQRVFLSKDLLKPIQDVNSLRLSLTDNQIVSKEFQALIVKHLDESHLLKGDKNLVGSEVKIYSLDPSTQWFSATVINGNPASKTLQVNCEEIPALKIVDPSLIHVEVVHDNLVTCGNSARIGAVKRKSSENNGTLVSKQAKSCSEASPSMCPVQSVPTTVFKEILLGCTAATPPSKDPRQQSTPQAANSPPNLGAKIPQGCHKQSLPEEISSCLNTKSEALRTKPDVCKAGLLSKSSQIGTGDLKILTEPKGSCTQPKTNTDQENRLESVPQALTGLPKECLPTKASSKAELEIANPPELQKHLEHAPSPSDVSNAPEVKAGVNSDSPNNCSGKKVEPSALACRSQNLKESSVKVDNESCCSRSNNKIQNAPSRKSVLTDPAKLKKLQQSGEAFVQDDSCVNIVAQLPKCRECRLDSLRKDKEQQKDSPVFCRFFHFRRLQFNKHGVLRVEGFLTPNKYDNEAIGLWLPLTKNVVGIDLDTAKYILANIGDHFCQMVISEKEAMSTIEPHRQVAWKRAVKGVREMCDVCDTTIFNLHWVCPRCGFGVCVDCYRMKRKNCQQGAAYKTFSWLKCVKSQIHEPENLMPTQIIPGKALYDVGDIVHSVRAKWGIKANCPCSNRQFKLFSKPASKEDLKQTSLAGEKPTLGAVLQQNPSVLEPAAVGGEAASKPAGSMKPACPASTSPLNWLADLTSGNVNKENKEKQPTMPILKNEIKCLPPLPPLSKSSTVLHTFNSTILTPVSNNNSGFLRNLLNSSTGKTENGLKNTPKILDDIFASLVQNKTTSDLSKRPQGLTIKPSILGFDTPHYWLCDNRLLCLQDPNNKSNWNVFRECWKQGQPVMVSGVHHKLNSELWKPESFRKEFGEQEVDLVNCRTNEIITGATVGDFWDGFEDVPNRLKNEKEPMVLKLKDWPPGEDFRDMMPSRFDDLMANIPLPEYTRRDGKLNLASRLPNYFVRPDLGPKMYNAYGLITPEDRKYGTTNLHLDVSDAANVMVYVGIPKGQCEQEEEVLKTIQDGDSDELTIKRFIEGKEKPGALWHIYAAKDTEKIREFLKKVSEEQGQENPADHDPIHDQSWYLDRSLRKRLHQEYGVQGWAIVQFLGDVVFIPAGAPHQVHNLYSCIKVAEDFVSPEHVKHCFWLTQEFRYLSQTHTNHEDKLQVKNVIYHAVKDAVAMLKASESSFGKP
Description: as §1, §2, §4
as §3, with “After brief shaking, plate was incubated for 30 minutes. Finally, 10 µl of AlphaScreen Streptavidin-conjugated donor beads (Perkin, diluted 1:125 with 1x detection buffer) were added.” left out, “PerkinElmer). […]” for “PerkinElmer).”
as §5

[4] = biological target: T3, FBXL11 (Homo sapiens, UniProt Q9Y2K7); assay: AlphaScreen FBXL11 demethylase inhibition (selectivity)
T3 construct: purchased BPS Bioscience (contract assay)
T3 sequence (Q9Y2K7 1-1162): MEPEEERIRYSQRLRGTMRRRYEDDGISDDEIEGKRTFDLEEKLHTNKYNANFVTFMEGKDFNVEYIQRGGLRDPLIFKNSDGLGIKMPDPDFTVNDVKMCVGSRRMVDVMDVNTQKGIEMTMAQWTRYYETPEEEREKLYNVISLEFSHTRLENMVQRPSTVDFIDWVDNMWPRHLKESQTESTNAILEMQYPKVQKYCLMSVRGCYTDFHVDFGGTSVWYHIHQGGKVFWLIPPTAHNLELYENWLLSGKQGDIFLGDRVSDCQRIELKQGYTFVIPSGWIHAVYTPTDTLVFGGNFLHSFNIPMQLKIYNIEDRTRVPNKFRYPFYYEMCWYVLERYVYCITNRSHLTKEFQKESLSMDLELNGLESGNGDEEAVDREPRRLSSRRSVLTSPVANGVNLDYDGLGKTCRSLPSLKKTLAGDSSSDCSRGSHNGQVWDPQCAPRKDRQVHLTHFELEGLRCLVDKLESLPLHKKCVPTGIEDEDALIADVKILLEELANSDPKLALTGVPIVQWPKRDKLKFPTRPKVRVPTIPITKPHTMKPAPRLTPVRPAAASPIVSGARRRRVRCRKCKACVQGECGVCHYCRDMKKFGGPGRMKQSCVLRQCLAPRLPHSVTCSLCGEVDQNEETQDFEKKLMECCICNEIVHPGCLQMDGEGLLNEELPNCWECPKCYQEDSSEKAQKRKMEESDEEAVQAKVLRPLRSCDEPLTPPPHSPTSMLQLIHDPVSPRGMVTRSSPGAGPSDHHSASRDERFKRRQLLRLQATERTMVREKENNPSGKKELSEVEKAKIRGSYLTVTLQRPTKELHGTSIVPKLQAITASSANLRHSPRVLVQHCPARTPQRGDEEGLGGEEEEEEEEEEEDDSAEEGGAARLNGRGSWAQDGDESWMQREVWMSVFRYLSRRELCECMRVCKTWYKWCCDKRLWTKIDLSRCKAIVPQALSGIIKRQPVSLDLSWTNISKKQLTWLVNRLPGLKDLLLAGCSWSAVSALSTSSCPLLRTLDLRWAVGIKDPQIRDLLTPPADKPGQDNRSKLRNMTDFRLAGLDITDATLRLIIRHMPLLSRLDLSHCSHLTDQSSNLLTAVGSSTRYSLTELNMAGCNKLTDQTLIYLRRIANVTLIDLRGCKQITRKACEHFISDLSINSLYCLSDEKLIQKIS
Description: as §1, §2, §4
as §3, with “After brief shaking, plate was incubated for 30 minutes. Finally, 10 µl of AlphaScreen Streptavidin-conjugated donor beads (Perkin, diluted 1:125 with 1x detection buffer) were added.” left out, “PerkinElmer). […]” for “PerkinElmer).”
as §5

[5] = biological target: T4, Jarid1A (Homo sapiens, UniProt P29375); assay: AlphaScreen Jarid1A demethylase inhibition (selectivity)
T4 construct: purchased BPS Bioscience (contract assay)
T4 sequence (P29375 whole entry): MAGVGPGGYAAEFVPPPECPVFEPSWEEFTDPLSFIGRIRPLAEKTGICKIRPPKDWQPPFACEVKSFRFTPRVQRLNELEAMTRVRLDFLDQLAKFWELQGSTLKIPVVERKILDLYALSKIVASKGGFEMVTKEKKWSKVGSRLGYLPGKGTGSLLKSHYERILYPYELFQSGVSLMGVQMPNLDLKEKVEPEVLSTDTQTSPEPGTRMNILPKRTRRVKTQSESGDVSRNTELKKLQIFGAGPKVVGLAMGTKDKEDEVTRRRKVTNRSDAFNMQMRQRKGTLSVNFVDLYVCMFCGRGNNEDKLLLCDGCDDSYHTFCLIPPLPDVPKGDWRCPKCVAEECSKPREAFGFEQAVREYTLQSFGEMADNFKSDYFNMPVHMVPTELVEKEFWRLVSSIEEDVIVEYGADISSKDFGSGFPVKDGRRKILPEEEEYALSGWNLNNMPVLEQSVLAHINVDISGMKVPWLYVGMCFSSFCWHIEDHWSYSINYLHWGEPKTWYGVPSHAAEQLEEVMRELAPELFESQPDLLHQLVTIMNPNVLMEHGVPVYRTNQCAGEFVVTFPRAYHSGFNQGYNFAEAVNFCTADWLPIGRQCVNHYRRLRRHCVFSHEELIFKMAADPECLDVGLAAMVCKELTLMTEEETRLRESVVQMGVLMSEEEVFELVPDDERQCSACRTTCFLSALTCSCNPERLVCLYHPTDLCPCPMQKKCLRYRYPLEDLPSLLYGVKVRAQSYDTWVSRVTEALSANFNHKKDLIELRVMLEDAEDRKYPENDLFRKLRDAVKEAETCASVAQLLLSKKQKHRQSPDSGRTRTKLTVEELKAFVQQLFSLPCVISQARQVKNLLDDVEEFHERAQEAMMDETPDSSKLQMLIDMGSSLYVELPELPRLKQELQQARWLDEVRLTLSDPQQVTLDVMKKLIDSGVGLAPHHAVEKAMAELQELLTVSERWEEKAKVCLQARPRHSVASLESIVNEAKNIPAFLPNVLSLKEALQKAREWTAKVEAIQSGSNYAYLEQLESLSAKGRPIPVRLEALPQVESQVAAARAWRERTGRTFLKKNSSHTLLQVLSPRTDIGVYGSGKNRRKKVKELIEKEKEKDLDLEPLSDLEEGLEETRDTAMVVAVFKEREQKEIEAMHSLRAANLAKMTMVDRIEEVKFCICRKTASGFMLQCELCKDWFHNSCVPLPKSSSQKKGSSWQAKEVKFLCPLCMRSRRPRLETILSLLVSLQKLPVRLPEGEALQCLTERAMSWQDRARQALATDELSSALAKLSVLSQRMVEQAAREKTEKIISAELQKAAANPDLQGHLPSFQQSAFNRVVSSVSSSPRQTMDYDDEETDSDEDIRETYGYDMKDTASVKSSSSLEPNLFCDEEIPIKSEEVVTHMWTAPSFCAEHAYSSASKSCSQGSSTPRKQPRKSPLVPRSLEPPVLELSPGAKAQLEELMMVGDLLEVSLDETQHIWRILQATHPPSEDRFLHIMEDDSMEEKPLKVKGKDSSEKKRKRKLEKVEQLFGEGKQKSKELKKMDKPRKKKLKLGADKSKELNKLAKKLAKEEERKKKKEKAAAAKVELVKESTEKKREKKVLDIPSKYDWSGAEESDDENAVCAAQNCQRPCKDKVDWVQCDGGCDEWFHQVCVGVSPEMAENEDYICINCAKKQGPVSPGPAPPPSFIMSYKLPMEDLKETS
Description: as §1, §2, §4
as §3, with “After brief shaking, plate was incubated for 30 minutes. Finally, 10 µl of AlphaScreen Streptavidin-conjugated donor beads (Perkin, diluted 1:125 with 1x detection buffer) were added.” left out, “PerkinElmer). […]” for “PerkinElmer).”
as §5

[6] = biological target: T5, Jarid1B (Homo sapiens, UniProt Q9UGL1); assay: AlphaScreen Jarid1B demethylase inhibition (selectivity)
T5 construct: purchased BPS Bioscience (contract assay)
T5 sequence (Q9UGL1 whole entry): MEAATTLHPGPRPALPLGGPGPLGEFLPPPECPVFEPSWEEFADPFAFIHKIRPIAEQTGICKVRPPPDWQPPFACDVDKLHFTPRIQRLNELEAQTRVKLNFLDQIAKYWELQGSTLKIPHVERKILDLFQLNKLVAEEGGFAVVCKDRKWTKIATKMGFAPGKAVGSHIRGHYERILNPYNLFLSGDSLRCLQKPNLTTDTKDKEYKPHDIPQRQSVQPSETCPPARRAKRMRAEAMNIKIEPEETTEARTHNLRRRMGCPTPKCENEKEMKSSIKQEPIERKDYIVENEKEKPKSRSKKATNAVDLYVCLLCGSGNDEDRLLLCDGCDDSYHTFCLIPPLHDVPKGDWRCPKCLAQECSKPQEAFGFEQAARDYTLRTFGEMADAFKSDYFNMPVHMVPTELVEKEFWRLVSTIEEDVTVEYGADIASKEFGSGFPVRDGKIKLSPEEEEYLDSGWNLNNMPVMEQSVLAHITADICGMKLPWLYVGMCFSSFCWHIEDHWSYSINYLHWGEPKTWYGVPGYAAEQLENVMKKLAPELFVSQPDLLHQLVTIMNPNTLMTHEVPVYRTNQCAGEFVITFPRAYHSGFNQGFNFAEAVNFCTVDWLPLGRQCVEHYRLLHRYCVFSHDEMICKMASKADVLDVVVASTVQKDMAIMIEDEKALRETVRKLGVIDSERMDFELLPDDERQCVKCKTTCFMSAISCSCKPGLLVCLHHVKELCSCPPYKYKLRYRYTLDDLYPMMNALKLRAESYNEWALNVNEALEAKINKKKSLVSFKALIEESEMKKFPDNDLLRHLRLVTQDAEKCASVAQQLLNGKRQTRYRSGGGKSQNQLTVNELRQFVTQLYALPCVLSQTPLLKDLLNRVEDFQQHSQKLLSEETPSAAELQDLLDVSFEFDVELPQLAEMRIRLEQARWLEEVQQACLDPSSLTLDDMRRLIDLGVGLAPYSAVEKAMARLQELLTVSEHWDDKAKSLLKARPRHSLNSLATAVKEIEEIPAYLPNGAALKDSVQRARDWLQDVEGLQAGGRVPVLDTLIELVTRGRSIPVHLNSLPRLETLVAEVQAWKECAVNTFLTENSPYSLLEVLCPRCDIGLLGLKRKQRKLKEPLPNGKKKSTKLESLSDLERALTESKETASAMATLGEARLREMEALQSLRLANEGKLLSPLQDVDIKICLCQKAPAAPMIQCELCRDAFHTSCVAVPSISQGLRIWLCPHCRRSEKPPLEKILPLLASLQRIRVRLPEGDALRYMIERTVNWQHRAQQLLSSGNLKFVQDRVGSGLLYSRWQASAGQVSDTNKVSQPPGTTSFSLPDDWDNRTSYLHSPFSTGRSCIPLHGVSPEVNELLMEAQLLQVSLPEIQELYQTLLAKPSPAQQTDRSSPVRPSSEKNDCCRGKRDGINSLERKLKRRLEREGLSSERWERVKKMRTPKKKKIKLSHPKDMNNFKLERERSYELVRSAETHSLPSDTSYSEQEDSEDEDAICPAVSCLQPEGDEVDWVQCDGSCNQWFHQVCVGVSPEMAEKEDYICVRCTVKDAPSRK
Description: as §1, §2, §4
as §3, with “After brief shaking, plate was incubated for 30 minutes. Finally, 10 µl of AlphaScreen Streptavidin-conjugated donor beads (Perkin, diluted 1:125 with 1x detection buffer) were added.” left out, “PerkinElmer). […]” for “PerkinElmer).”
as §5

Sequence of JMJD3 (O15054 whole entry): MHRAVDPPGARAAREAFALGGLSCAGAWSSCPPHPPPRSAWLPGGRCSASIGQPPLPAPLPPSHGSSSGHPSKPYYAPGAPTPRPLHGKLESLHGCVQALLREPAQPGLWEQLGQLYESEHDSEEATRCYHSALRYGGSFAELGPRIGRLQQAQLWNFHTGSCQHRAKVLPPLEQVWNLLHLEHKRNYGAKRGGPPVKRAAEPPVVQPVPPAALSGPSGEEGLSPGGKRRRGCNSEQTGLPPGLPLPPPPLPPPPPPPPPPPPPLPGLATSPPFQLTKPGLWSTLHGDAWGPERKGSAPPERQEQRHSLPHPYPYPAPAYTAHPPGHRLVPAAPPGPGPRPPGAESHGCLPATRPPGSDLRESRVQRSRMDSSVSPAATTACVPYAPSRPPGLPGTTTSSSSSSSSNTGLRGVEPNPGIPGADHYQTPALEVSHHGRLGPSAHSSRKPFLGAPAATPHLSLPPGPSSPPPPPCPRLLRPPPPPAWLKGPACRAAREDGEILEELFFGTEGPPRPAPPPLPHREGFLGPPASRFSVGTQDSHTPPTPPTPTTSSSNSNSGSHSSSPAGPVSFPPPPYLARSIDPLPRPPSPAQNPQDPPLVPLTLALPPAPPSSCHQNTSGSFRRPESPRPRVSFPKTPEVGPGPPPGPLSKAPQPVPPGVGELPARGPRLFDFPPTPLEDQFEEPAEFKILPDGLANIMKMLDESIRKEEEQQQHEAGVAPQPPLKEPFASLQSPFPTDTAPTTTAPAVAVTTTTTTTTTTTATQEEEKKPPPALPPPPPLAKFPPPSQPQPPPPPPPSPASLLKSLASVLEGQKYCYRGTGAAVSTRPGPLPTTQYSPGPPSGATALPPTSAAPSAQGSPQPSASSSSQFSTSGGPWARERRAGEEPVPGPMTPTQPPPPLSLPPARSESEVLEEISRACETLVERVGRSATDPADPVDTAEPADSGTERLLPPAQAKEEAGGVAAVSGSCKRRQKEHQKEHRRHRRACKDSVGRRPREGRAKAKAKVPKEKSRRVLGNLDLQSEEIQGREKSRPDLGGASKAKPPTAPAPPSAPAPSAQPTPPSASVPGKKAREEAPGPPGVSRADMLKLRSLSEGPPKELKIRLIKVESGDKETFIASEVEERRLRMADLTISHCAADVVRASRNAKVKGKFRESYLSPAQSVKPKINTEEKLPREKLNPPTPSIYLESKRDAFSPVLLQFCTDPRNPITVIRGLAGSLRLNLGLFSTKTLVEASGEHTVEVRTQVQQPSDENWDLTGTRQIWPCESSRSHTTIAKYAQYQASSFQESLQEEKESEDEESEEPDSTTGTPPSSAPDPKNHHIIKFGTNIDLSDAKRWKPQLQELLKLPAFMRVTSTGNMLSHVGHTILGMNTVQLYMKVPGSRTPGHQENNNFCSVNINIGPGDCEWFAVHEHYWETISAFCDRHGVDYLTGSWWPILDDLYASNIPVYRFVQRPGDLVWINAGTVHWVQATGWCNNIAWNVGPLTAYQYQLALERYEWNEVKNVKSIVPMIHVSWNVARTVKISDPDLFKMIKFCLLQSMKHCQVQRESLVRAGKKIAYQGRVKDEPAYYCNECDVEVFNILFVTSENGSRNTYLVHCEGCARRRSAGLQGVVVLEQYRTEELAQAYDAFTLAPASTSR

COc1cc(-c2cnc3c(C(=O)O)ccc(C(=O)O)c3c2)c(OC)nn1 [Compound 6]
inhibition at 25 µM [1]: ~25%

NS(=O)(=O)c1ccc(-c2cnc3c(C(=O)O)ccc(C(=O)O)c3c2)cc1 [Compound 4]
inhibition at 25 µM [1]: 65%

COc1ncc(-c2cnc3c(C(=O)O)ccc(C(=O)O)c3c2)c(OC)n1 [Compound 3, 3‐(2,4‐dimethoxypyrimidin‐5‐yl)quinoline‐5,8‐dicarboxylic acid]
inhibition at 25 µM [1]: 90%
IC50 ([1]; read-out: IC50±SEM JMJD3): 1.52 ± 0.5 µM
Percent Inhibition UTX [2]: no significant inhibition
inhibition at 10 µM ([3]; at 10 μM, read-out: Percent Inhibition JMJD1A): 12%
IC50 ([3]; footnote b of Table 1): > 10 µM
inhibition at 10 µM ([4]; at 10 μM, read-out: Percent Inhibition FBXL11): 15%
IC50 ([4]; footnote b of Table 1): > 10 µM
inhibition at 10 µM ([5]; at 10 μM, read-out: Percent Inhibition Jarid1A): 33%
IC50 ([5]; footnote b of Table 1): > 10 µM
inhibition at 10 µM ([6]; at 10 μM, read-out: Percent Inhibition Jarid1B): 26%
IC50 ([6]; footnote b of Table 1): > 10 µM

COc1cc(-c2cnc3c(C(=O)O)ccc(C(=O)O)c3c2)ccc1F [Compound 7]
inhibition at 25 µM [1]: ~12%

O=C(O)c1ccc(-c2cnc3c(C(=O)O)ccc(C(=O)O)c3c2)s1 [Compound 5]
inhibition at 25 µM [1]: 60%

Source: PMC6055880, “Virtual Fragment Screening Identification of a Quinoline‐5,8‐dicarboxylic Acid Derivative as a Selective JMJD3 Inhibitor” (Chemmedchem, 2018)
